This is an account of results in patent US20220363689A1, “INHIBITOR OF BTK AND MUTANTS THEREOF” (Newave Pharmaceutical Inc., priority 2019, published 2022).

Holding throughout (format): biochemical
In assay [1] the target is T1, WT BTK (Homo sapiens, UniProt Q06187). Nature of the assay: In vitro dialysis assay (irreversibility assay), WT BTK. The note with it: reversible or irreversible/covalent inhibition after 24 h dialysis. As for the experimental part:
The compound-enzyme complex was dialyzed against the same buffer supplemented with 40 mM ATP for 24 hr. Cumulative dialysis factor>160,000×. After dialysis, the BTK activity was measured in the presence […] and 1 mM substrate peptide and compared to that in non-dialyzed samples. Assay buffer: 100 mM HEPES, pH7.5; […]; 5 mM MgCl2; 1 mM DTT. In this study, Ibrutiib (a FDA approved irreversible BTK inhibitor) was used as a positive control and Saurosporine (a reversible BTK inhibitor) was used as a negative control.

Assay [2] addresses T1, WT BTK. Nature of the assay: Caliper-based kinase assay, WT BTK. To be noted: 0.5 nM enzyme, ATP 16 μM, room temperature 3 h; read-out: WT BTK IC50 (nM) (irreversible inhibition). The method, then:
(§1) A Caliper-based kinase assay (Caliper Life Sciences, Hopkinton, Mass.) was used to measure inhibition of WT and […] Btk kinase activity of a compound of the present disclosure. […] The reaction was then terminated with EDTA, final concentration 20 mM and the phosphorylated reaction product was quantified on a Caliper Desktop Profiler (Caliper LabChip 3000).

The target of a further assay is C481S Btk (Homo sapiens, UniProt Q06187, C481S). Nature of the assay: Caliper-based kinase assay, C481S BTK. The note with it: 0.5 nM enzyme, ATP 16 μM, room temperature 3 h; read-out: C481S BTK IC50 (nM) (reversible inhibition). As for the experimental part:
as §1

Structures are written as SMILES.

Sequence of C481S Btk (Q06187 whole entry C481S): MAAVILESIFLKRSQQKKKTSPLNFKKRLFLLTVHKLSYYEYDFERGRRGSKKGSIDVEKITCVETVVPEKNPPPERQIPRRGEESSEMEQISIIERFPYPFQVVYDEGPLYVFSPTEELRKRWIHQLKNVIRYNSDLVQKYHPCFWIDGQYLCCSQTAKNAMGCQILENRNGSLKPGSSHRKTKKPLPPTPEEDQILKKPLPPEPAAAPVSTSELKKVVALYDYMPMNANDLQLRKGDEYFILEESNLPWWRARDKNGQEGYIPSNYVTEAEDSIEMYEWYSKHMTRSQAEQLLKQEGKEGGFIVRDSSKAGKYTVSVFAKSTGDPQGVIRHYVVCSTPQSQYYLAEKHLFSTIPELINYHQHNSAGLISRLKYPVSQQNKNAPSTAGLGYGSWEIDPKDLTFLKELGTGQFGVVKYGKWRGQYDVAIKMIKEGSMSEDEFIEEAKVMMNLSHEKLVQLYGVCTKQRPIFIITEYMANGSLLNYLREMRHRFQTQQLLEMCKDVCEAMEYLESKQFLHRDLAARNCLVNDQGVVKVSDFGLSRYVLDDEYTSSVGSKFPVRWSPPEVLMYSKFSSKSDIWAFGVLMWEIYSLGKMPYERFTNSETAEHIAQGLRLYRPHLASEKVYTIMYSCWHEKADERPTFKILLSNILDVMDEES
T1 sequence (Q06187 whole entry): as the sequence (Q06187 whole entry C481S) above, with S481C counted along it

As to `C=CC(=O)Nc1cc(Nc2nc(-c3ccnc(N4CCCn5c(cc6c5CC(C)(C)C6)C4=O)c3CO)cn(C)c2=O)ccc1N1CCN([C@H]2C[C@@H](C)O[C@@H](C)C2)C[C@@H]1C` [Example 38, N-(5-[[6-(2-[4,4-dimethyl-9-oxo-1,10-diazatricyclo[6.5.0.0^[2,6]]trideca-2(6),7-dien-10-yl]-3-(hydroxymethyl)pyridin-4-yl)-4-methyl-3-oxopyrazin-2-yl]amino]-2-[(2S)-2-methyl-4-[(2R,4r,6S)-2,6-dimethyloxan-4-yl]piperazin-1-yl]phenyl)prop-2-enamide], at WT BTK [1], the “Conclusion (WT BTK)” value is recorded as “Irreversible/covalent inhibition”. The figures for the IC50 on WT BTK [2] and on C481S Btk were 0.073 nM and 0.26 nM, respectively.
Regarding `C=CC(=O)Nc1cc(Nc2nc(-c3ccnc(N4CCn5c(cc6c5CC(C)(C)C6)C4=O)c3CO)cn(C)c2=O)ccc1C1C(=O)N(C)CCN1C1COC1` (stereo not drawn) [Example 41], the “Conclusion (WT BTK)” value at WT BTK [1] was “Irreversible/covalent inhibition”. The IC50 on WT BTK [2] stood at 0.27 nM; on C481S Btk, 0.61 nM.
With `C=CC(=O)Nc1cc(Nc2nc(-c3ccnc(N4CCc5c(sc6c5CCC6(C)C)C4=O)c3CO)cn(C)c2=O)ccc1N1CCN(C2COC2)C[C@@H]1C` [Example 35, N-(5-[[6-(2-[5,5-dimethyl-9-oxo-7-thia-10-azatricyclo[6.4.0.0^[2,6]]dodeca-1(8),2(6)-dien-10-yl]-3-(hydroxymethyl)pyridin-4-yl)-4-methyl-3-oxopyrazin-2-yl]amino]-2-[(2S)-2-methyl-4-(oxetan-3-yl)piperazin-1-yl]phenyl)prop-2-enamide], the “Conclusion (WT BTK)” value on WT BTK [1] was “Irreversible/covalent inhibition”. The IC50 at WT BTK [2] was 0.13 nM; on C481S Btk it was 17.9 nM.
In the case of `C=CC(=O)Nc1cc(Nc2nc(-c3ccnc(N4CCc5c(sc6c5CCCC6)C4=O)c3CO)cn(C)c2=O)ccc1N1CCN(C2COC2)C[C@@H]1C` [Example 36, N-[5-([6-[3-(hydroxymethyl)-2-[6-oxo-8-thia-5-azatricyclo[7.4.0.0^[2,7]]trideca-1(9),2(7)-dien-5-yl]pyridin-4-yl]-4-methyl-3-oxopyrazin-2-yl]amino)-2-[(2S)-2-methyl-4-(oxetan-3-yl)piperazin-1-yl]phenyl]prop-2-enamide], the “Conclusion (WT BTK)” value at WT BTK [1] was “Irreversible/covalent inhibition”. The values for the IC50 at WT BTK [2] and at C481S Btk were 0.1 nM and 1.1 nM, respectively.
With `C=CC(=O)Nc1cc(Nc2nc(-c3ccnc(N4CCn5c(cc6c5CC(C)(C)C6)C4=O)c3CO)cn(C)c2=O)ccc1N1CCN(C2CCC(F)(F)CC2)C[C@@H]1C` [Example 23, N-[2-[(2S)-4-(4,4-difluorocyclohexyl)-2-methylpiperazin-1-yl]-5-[[6-(2-[4,4-dimethyl-9-oxo-1,10-diazatricyclo[6.4.0.0^[2,6]]dodeca-2(6),7-dien-10-yl]-3-(hydroxymethyl)pyridin-4-yl)-4-methyl-3-oxopyrazin-2-yl]amino]phenyl]prop-2-enamide], the “Conclusion (WT BTK)” value at WT BTK [1] was “Irreversible/covalent inhibition”. Besides, the values for the IC50 on WT BTK [2] and on C481S Btk were 0.048 nM and 0.49 nM, respectively.
For `C=CC(=O)Nc1cc(Nc2nc(-c3ccnc(N4CCn5c(cc6c5CC(C)(C)C6)C4=O)c3CO)cn(C)c2=O)ccc1N1CCN(C2CCOCC2)C[C@@H]1C` [Example 22, N-(5-[[6-(2-[4,4-dimethyl-9-oxo-1,10-diazatricyclo[6.4.0.0^[2,6]]dodeca-2(6),7-dien-10-yl]-3-(hydroxymethyl)pyridin-4-yl)-4-methyl-3-oxopyrazin-2-yl]amino]-2-[(2S)-2-methyl-4-(oxan-4-yl)piperazin-1-yl]phenyl)prop-2-enamide], in that order: “Irreversible/covalent inhibition”, 0.046 nM and 0.48 nM.
For the molecule `C=CC(=O)Nc1cc(Nc2nc(-c3ccnc(N4CCn5c(cc6c5CC(C)(C)C6)C4=O)c3C)cn(C)c2=O)ccc1N1CCC(N2CCOCC2)CC1.Cl` [Example 18, N-(5-[[6-(2-[4,4-dimethyl-9-oxo-1,10-diazatricyclo[6.4.0.0^[2,6]]dodeca-2(6),7-dien-10-yl]-3-methylpyridin-4-yl)-4-methyl-3-oxopyrazin-2-yl]amino]-2-[4-(morpholin-4-yl)piperidin-1-yl]phenyl)prop-2-enamide hydrochloride], the “Conclusion (WT BTK)” value at WT BTK [1] is “Irreversible/covalent inhibition”. For the same molecule, the figures for the IC50 at WT BTK [2] and at C481S Btk were 0.18 nM and 11.4 nM, respectively.
Consider `C=CC(=O)Nc1cc(Nc2nc(-c3ccnc(N4CCn5c(cc6c5CC(C)(C)C6)C4=O)c3CO)cn(C)c2=O)ccc1N1CCN(C2COC2)C[C@@H]1C` [Example 3, (S)—N-(5-((6-(2-(7,7-dimethyl-1-oxo-1,3,4,6,7,8-hexahydro-2H-cyclopenta[4,5]pyrrolo[1,2-a]pyrazin-2-yl)-3-(hydroxymethyl)pyridin-4-yl)-4-methyl-3-oxo-3,4-dihydropyrazin-2-yl)amino)-2-(2-methyl-4-(oxetan-3-yl)piperazin-1-yl)phenyl)acrylamide], for which the “Conclusion (WT BTK)” value at WT BTK [1] was “Irreversible/covalent inhibition”. In addition, the results for the IC50 on WT BTK [2] and on C481S Btk were 0.14 nM and 0.72 nM, respectively.
In the case of `C=CC(=O)Nc1cc(Nc2nc(-c3ccnc(N4CCCn5c(cc6c5CC(C)(C)C6)C4=O)c3CO)cn(C)c2=O)ccc1N1CCN(C2COC2)C[C@@H]1C` [Example 29, N-(5-[[6-(2-[4,4-dimethyl-9-oxo-1,10-diazatricyclo[6.5.0.0^[2,6]]trideca-2(6),7-dien-10-yl]-3-(hydroxymethyl)pyridin-4-yl)-4-methyl-3-oxopyrazin-2-yl]amino]-2-[(2S)-2-methyl-4-(oxetan-3-yl)piperazin-1-yl]phenyl)prop-2-enamide], the “Conclusion (WT BTK)” value at WT BTK [1] is listed as “Irreversible/covalent inhibition”. The IC50 on WT BTK [2] came out at 0.076 nM; at C481S Btk, 0.32 nM.
Consider `C=CC(=O)Nc1cc(Nc2nc(-c3ccnc(N4CCn5c(cc6c5CC(C)(C)C6)C4=O)c3CO)cn(C)c2=O)ccc1N1CCC(N2CCC(F)(F)CC2)CC1` [Example 20, N-(2-[4,4-difluoro-[1,4′-bipiperidin]-1′-yl]-5-[[6-(2-[4,4-dimethyl-9-oxo-1,10-diazatricyclo[6.4.0.0^[2,6]]dodeca-2(6),7-dien-10-yl]-3-(hydroxymethyl)pyridin-4-yl)-4-methyl-3-oxopyrazin-2-yl]amino]phenyl)prop-2-enamide], for which, at WT BTK [1], the “Conclusion (WT BTK)” value is reported as “Irreversible/covalent inhibition”. The figures for the IC50 on WT BTK [2] and on C481S Btk were 0.053 nM and 0.4 nM, respectively.
Consider `C=CC(=O)Nc1cc(Nc2nc(-c3ccnc(N4CCn5c(cc6c5CC(C)(C)C6)C4=O)c3CO)cn(C)c2=O)ccc1N1CCC(N2CCN(C)CC2)CC1` [Example 21, N-(5-[[6-(2-[4,4-dimethyl-9-oxo-1,10-diazatricyclo[6.4.0.0^[2,6]]dodeca-2(6),7-dien-10-yl]-3-(hydroxymethyl)pyridin-4-yl)-4-methyl-3-oxopyrazin-2-yl]amino]-2-[4-(4-methylpiperazin-1-yl)piperidin-1-yl]phenyl)prop-2-enamide], for which the “Conclusion (WT BTK)” value at WT BTK [1] was “Irreversible/covalent inhibition”. Also, the IC50 on WT BTK [2] turned out to be 0.04 nM; at C481S Btk it was 0.4 nM.
Regarding `C=CC(=O)Nc1cc(Nc2nc(-c3ccnc(N4CCn5c(cc6c5CC(C)(C)C6)C4=O)c3CO)cn(C)c2=O)ccc1N1CCN(C2CCOC2)C[C@@H]1C` (stereo partly drawn) [Example 39, N-(5-[[6-(2-[4,4-dimethyl-9-oxo-1,10-diazatricyclo[6.4.0.0^[2,6]]dodeca-2(6),7-dien-10-yl]-3-(hydroxymethyl)pyridin-4-yl)-4-methyl-3-oxopyrazin-2-yl]amino]-2-[(2S)-2-methyl-4-(oxolan-3-yl)piperazin-1-yl]phenyl)prop-2-enamide], the “Conclusion (WT BTK)” value at WT BTK [1] is given as “Irreversible/covalent inhibition”. For the same molecule, the IC50 came to 0.06 nM on WT BTK [2] and 0.34 nM at C481S Btk.
The like results for `C=CC(=O)Nc1cc(Nc2nc(-c3ccnc(N4CCn5c(cc6c5CC(C)(C)C6)C4=O)c3C)cn(C)c2=O)ccc1N1CCN(C2COC2)C[C@@H]1C` [Example 11, (S)—N-(5-((6-(2-(7,7-dimethyl-1-oxo-1,3,4,6,7,8-hexahydro-2H-cyclopenta[4,5]pyrrolo[1,2-a]pyrazin-2-yl)-3-methylpyridin-4-yl)-4-methyl-3-oxo-3,4-dihydropyrazin-2-yl)amino)-2-(2-methyl-4-(oxetan-3-yl)piperazin-1-yl)phenyl)acrylamide] were, in that order, “Irreversible/covalent inhibition”, 0.25 nM and 15.9 nM.
As for `C=CC(=O)Nc1cc(Nc2nc(-c3ccnc(N4CCn5c(cc6c5CC(C)(C)C6)C4=O)c3CO)cn(C)c2=O)ccc1N1CCC(N2CCOCC2)CC1C` (stereo not drawn) [Example 12, N-(5-((6-(2-(7,7-dimethyl-1-oxo-1,3,4,6,7,8-hexahydro-2H-cyclopenta[4,5]pyrrolo[1,2-a]pyrazin-2-yl)-3-(hydroxymethyl)pyridin-4-yl)-4-methyl-3-oxo-3,4-dihydropyrazin-2-yl)amino)-2-(2-methyl-4-morpholinopiperidin-1-yl)phenyl)acrylamide], the “Conclusion (WT BTK)” value on WT BTK [1] is given as “Irreversible/covalent inhibition”. For the same molecule, the IC50 was 0.046 nM on WT BTK [2] and 0.25 nM at C481S Btk.
